Patent US6525027B2, “Use of ribose supplementation for increasing muscle mass and decreasing body fat in humans” (Bioenergy Inc., priority 2000, dated 2003)
“And” between values parts separate entries of the source, which are not always exact repeats. Equal entries are not always repeated.

Experiments:
Type in all cases: in vivo, humans
[1] = Skinfold test, % body fat, before and after 10 weeks of weight training with supplementation
Procedure: (§1) The study subjects were healthy males, ages 18 to 40, with previous weight training experience. […] Pages 111-112.
(§2) The duration of the study was 10 weeks and included a supplementation regime of D-Ribose or D-Glucose as placebo control, combined with resistance weight training. The subjects were divided into two matched groups, four subjects received D-Ribose and two subjects received placebo.
(§3) Baseline testing was conducted before training and supplementation. Prior to any testing the subjects were required to read and sign an informed consent document. Subject information to be collected prior to the start of the exercise regimen included age, height, weight, body composition and performance measures. The body composition was determined by hydrostatic weighing and skinfold measurements to determine beginning percentage muscle mass and percentage body fat.
(§4) There were four training sessions per week. At each training session, the subject was accompanied by a supervisor to ensure proper lifting technique, safety and efficiency of the training session. D-Ribose or placebo at a dose of 5 gm was taken one-half hour before and one-half after the training session. On the three days per week when the subjects were not trained, the subjects were allowed to consume the supplement at their convenience. Dietary recalls were also kept on Tuesday, Wednesday and Thursday of each week, but not dietary requirements were imposed.
(§5) The lifting sessions were designed to exercise mainly the largest muscles of the body, that is, arm, leg, abdominals and back. All lifting sessions were preceded by warm-up sets of 20 repetitions at low weights. After week 4, the weight to be lifted was increased when the subject was able to do the maximum number of reps for all three sets. There was a 2-minute rest between each set and a 5 minute rest between each exercise. The lifting sessions were as follows:
(§6) Following the training period of 10 weeks, the subjects were tested as for the pre-testing procedure. […]

[2] = Underwater weight test (hydrostatic weighing), % body fat, before and after 10 weeks of weight training with supplementation
Procedure: as §1, §2, §3, §4, §5, §6

[3] = Performance measures: maximum weight lifted once (1RM), bench press and squat, after 10 weeks of training
Excerpt: as §1, §2
Initial performance measures were individualized to each subject. The maximum weight each subject could lift once (1RM) was determined for the bench press and the squat lift. The maximal repetitions that each subject was able to lift of their own body weight was determined. Each subject performed as many repetitions as possible, followed by a one-minute rest and then repeated. The sets were continued until no weight could be lifted, limited by a maximum of 10 sets.
as §4, with “Dietary recalls were also kept on Tuesday, Wednesday and Thursday of each week, but not dietary requirements were imposed.” left out

[4] = Change in body weight after 10 weeks of training; conditions: placebo group remained the same
Procedure: as §1, §2, §3
as §4, with “Dietary recalls were also kept on Tuesday, Wednesday and Thursday of each week, but not dietary requirements were imposed.” left out

[5] = group average of four subjects, post compared to pre-training
[6] = individual subjects, after 10 weeks of weight training, 5 gm before and after each session
[7] = individual subjects, post training compared to pre-training
[8] = individual subjects, pre-training baseline

Question: With O=C[C@H](O)[C@H](O)[C@H](O)CO [Ribose, D-Ribose] as the molecule, how does the “Skinfold Test, % Body Fat, Difference, Average” value [1, 5] read?
Answer: −3.1%

Question: What about the “Skinfold Test, % Body Fat, Post” value [1, 6] of the same molecule?
Answer: 26.2% and 14.2% and 18.0% and 11.5%

Question: And the “Skinfold Test, % Body Fat, Difference” value [1, 7]?
Answer: −2.8% and −2.4% and −3.7% and −3.3%

Question: What about the “Skinfold Test, % Body Fat, Pre” value [1, 8] of the same molecule?
Answer: 29.0% and 16.6% and 21.7% and 14.8%

Question: And the “Decrease in subcutaneous body fat (skinfold test) compared with placebo” value ([1]; ten week period, in words)?
Answer: greater decrease in body fat

Question: And the “Underwater Weight Test, % body fat, Difference, Average” value [2, 5]?
Answer: −1.3%

Question: What about the “Underwater Weight Test, % body fat, Post” value [2, 6] of the same molecule?
Answer: 18.5% and 23.6% and 12.5% and 27.8%

Question: What about the “Underwater Weight Test, % body fat, Difference” value [2, 7] of the same molecule?
Answer: +0.8% and −1.1% and −5.0% and −21.9%

Question: What about the “Underwater Weight Test, % body fat, Pre” value [2, 8] of the same molecule?
Answer: 17.7% and 22.5% and 17.5% and 29.7%

Question: And the “Decrease in total body fat (underwater weight test) compared with placebo” value ([2]; ten week period, in words)?
Answer: greater decrease in body fat

Question: And the “Increase in 1 RM Squat re-test” value ([3]; placebo group 12 pounds)?
Answer: 45.5 pounds

Question: And the “Increase in weight lifted once in the bench press (1RM)” value ([3]; placebo group improved by 10 pounds)?
Answer: 10.5 pounds

Question: What about the “Average increase in body weight” value [4] of the same molecule?
Answer: 3.4 pounds
